The text below walks through data of patent publication US9345764B2, “Moesin modulators and uses thereof” (SHANGHAI KEXIN BIOTECH CO., LTD., priority 2010, dated 2016).

The subject of one test is HPMEC cells. Description: Annexin V apoptosis assay (FITC/PI, flow cytometry). Conditions: agent alone, without combination partner. Format: cell-based, human. How it is done:
Cell cultures in the presence of anti-moesin antibodies as described in Example 1 were subjected to apoptosis assay as well as surface antigen assay, to assess the antibody's effect on promoting endothelial cell apoptosis and on intercellular expression of moesin (indicating the active form of the protein).
Annexin V assay was used to study apoptosis. Collected cells were washed with PBS, centrifuged, and added sequentially with 70% ethanol, […] (200 mg/l) and PI (20 mg/l). Cells were then stained with Annexin-V FITC/PI kit for double staining of FITC and PI, because viable cells are both FITC and PI negative, while cells that are in early apoptosis are FITC positive but PI negative, and cells that are in late apoptosis or already dead are both FITC and PI positive. Stained cells are analyzed using a flow cytometer for amount of apoptotic cells in the presence of variant testing agents. The percentage of cells in early apoptosis and the percentage of cells in late apoptosis or dead cells after treatment with the test groups and the control group were determined and the results are shown in FIG. 4(a) and FIG. 4(b) respectively.
On the technique in general: A flow cytometer gives signals particle by particle.

Test [1] has as its system human pulmonary microvascular endothelial cell line (HPMEC). Kind of test: Cell proliferation assay. Format: cell-based. The conditions noted are these: agent alone; compared with negative control (Group 6, PBS); FIG. 3. How it is done: Cell proliferation assay were performed using a human pulmonary microvascular endothelial cell line (HPMEC). Cells were plated in each well on a 6-well plate at 10^6 cells/cm^2, and cultured at […] in the presence of various testing and control reagents as described below. After culturing for a determined period of time, cells were collected and labeled for flow cytometry analysis. Proliferation rates at 2 hrs, 24 hrs and 36 hrs were determined by dividing the mean OD570 value from the tested groups with the mean OD570 value from the group having the same number of cells as the test groups at the beginning of the cell culturing.
Tested and control groups are as follows:
2) Antibody against full length moesin protein (anti-Moesin);
3) Antibody against the C-terminal tail domain only (anti-M3);
4) TNF-alpha+anti-Moesin;
6) PBS solution (negative control)

Turning to TNF-alpha, in the test on HPMEC cells, the cell apoptosis entry is recorded as “could induce cell apoptosis but the effect is not as much as it in combination with anti-moesin or anti-M3”. The cell proliferation rates result in test [1] is on record as “reduced cell proliferation rates but not as much as in combination with anti-moesin or anti-M3”.
